Results as given in patent US11504382B2, “Tricyclic inhibitors of Hepatitis B virus” (Antios Therapeutics, Inc., priority 2018, dated 2022).
Like-named read-outs stand apart in the source and are kept apart here.

System: HBV
Assay: HBV inhibition assay in HepAD38 cells (extracellular HBV DNA by direct qPCR)
Type: cell-based, Hepatitis B virus
Settings: for inhibition at 0.1 µM / Anti HBV Activity (conc μM): 0.1 μM
[1] = Hepatitis B virus, 96 hours, relative to non-treated reference, read-out: Anti HBV Activity (conc μM)
[2] = Hepatitis B virus, 96 hours, 8-point dose-response curve, read-out: HBV inh EC50
[3] = 96 hours, relative to non-treated reference

`Cn1cc2c(c1C(=O)Nc1cc(F)c(F)c(F)c1)OCC1CN(C(=O)OC(C)(C)C)CC1NS2(=O)=O` (racemic) [Example E24, Tert-Butyl (3aS,10aS and 3aR,10aR) 7-methyl-8-((3,4,5-trifluorophenyl)carbamoyl)-3a,4,10,10a-tetrahydro-1H,7H-dipyrrolo[3,4-b:3′,4′-f][1,4,5]oxathiazocine-2(3H)-carboxylate 5,5-dioxide] was tested. Which inhibition at 0.1 µM [1] did it give?
The inhibition at 0.1 µM was over 50%.

With `Cc1nnc(N2C[C@H]3COc4c(cn(C)c4C(=O)Nc4ccc(F)c(C)c4)S(=O)(=O)N[C@H]3C2)o1` [Example E118, (3aR,10aR)—N-(4-fluoro-3-methylphenyl)-7-methyl-2-(5-methyl-1,3,4-oxadiazol-2-yl)-2,3,3a,4,10,10a-hexahydro-1H,7H-dipyrrolo[3,4-b:3′,4′-f][1,4,5]oxathiazocine-8-carboxamide 5,5-dioxide] as the compound, how does the EC50 [2] read?
The EC50 was under 1000 nM.

`Cc1nnc(C(=O)N2CC3NS(=O)(=O)c4cn(C)c(C(=O)Nc5ccc(F)c(C)c5)c4OCC3(C)C2)o1` (stereo not drawn) [Example E86, cis-N-(4-fluoro-3-methylphenyl)-7,10a-dimethyl-2-(5-methyl-1,3,4-oxadiazole-2-carbonyl)-2,3,3a,4,10,10a-hexahydro-1H,7H-dipyrrolo[3,4-b:3′,4′-f][1,4,5]oxathiazocine-8-carboxamide 5,5-dioxide] was tested. Which EC50 [2] did it give?
The EC50 was under 1000 nM.

With `Cc1noc(N2C[C@H]3COc4c(cn(C)c4C(=O)Nc4ccc(F)c(Cl)c4)S(=O)(=O)N[C@H]3C2)n1` [Example E116, (3aR,10aR)—N-(3-chloro-4-fluorophenyl)-7-methyl-2-(3-methyl-1,2,4-oxadiazol-5-yl)-2,3,3a,4,10,10a-hexahydro-1H,7H-dipyrrolo[3,4-b:3′,4′-f][1,4,5]oxathiazocine-8-carboxamide 5,5-dioxide] as the compound, how does the EC50 [2] read?
Its EC50 is under 1000 nM.

Which EC50 [2] does the source give for `Cc1nnc(C(=O)N2C[C@H]3COc4c(cn(C)c4C(=O)Nc4ccc(F)c(C)c4)S(=O)(=O)N[C@@H]3C2)o1` (relative stereo) [Example E146, Trans-N-(4-fluoro-3-methylphenyl)-7-methyl-2-(5-methyl-1,3,4-oxadiazole-2-carbonyl)-2,3,3a,4,10,10a-hexahydro-1H,7H-dipyrrolo[3,4-b:3′,4′-f][1,4,5]oxathiazocine-8-carboxamide 5,5-dioxide] here?
The EC50 was under 1000 nM.

`Cn1cc2c(c1C(=O)Nc1ccc(F)c(F)c1)OCC1CCN1S2(=O)=O` (stereo not shown) [Example E3, N-(3,4-difluorophenyl)-2-methyl-6,7,7a,8-tetrahydro-2H-azeto[1,2-e]pyrrolo[3,4-b][1,4,5]oxathiazepine-1-carboxamide 4,4-dioxide] was tested. Which inhibition at 1 µM [1] did it give?
Its inhibition at 1 µM is over 50%.

What about the EC50 [2] of the same compound?
Its EC50 is under 1000 nM.

Which EC50 [2] does the source give for `Cc1cc(NC(=O)c2c3c(cn2C)S(=O)(=O)N[C@H]2CN(C(=O)OC(C)(C)C)C[C@@H]2CO3)ccc1F` (single isomer, unassigned) [Example E152] here?
Its EC50 is under 1000 nM.

Which EC50 [2] does the source give for `Cc1cc(NC(=O)c2c3c(cn2C)S(=O)(=O)NC2CCN(C(=O)C4(C)COC4)CC2CO3)ccc1F` (racemic) [Example E126, Cis-N-(4-fluoro-3-methylphenyl)-2-methyl-8-(3-methyloxetane-3-carbonyl)-5,5a,6,7,8,9,9a,10-octahydro-2H-pyrido[4,3-f]pyrrolo[3,4-b][1,4,5]oxathiazocine-1-carboxamide 4,4-dioxide] here?
The EC50 was under 1000 nM.

With `Cn1cc2c(c1C(=O)Nc1ccc(F)c(F)c1)OC[C@H]1C[C@H](C1)NS2(=O)=O` [Example E5] as the compound, how does the inhibition at 1 µM [1] read?
The inhibition at 1 µM was under 50%.

For `Cn1cc2c(c1C(=O)Nc1cc(F)c(F)c(F)c1)OC[C@@H]1CN(C(=O)c3cocn3)C[C@@H]1NS2(=O)=O` [Example E106, (3aR,10aR)-7-methyl-2-(oxazole-4-carbonyl)-N-(3,4,5-trifluorophenyl)-2,3,3a,4,10,10a-hexahydro-1H,7H-dipyrrolo[3,4-b:3′,4′-f][1,4,5]oxathiazocine-8-carboxamide 5,5-dioxide], which EC50 [2] is on record?
The EC50 was under 1000 nM.

How did the EC50 [2] turn out when `Cc1cc(NC(=O)c2c3c(cn2C)S(=O)(=O)NC2CN(C(=O)c4ncoc4C)CCC2CO3)ccc1F` (racemic) [Example E139, Cis-N-(4-fluoro-3-methylphenyl)-2-methyl-7-(5-methyloxazole-4-carbonyl)-5,5a,6,7,8,9,9a,10-octahydro-2H-pyrido[3,4-f]pyrrolo[3,4-b][1,4,5]oxathiazocine-1-carboxamide 4,4-dioxide] was run?
Its EC50 is under 1000 nM.

For `Cc1cc(NC(=O)c2c3c(cn2C)S(=O)(=O)N[C@@H]2CN(C(=O)c4ccncc4)C[C@@H]2CO3)ccc1F` (relative stereo) [Example E55, cis-N-(4-fluoro-3-methylphenyl)-2-isonicotinoyl-7-methyl-2,3,3a,4,10,10a-hexahydro-1H,7H-dipyrrolo[3,4-b:3′,4′-f][1,4,5]oxathiazocine-8-carboxamide 5,5-dioxide], which inhibition at 0.1 µM [1] is on record?
Its inhibition at 0.1 µM is over 50%.

For `Cc1cc(NC(=O)c2c3c(cn2C)S(=O)(=O)N[C@H]2CN(C(=O)c4cocn4)C[C@H]2CO3)ccc1F` [Example E104, (3aR,10aR)—N-(4-fluoro-3-methylphenyl)-7-methyl-2-(oxazole-4-carbonyl)-2,3,3a,4,10,10a-hexahydro-1H,7H-dipyrrolo[3,4-b:3′,4′-f][1,4,5]oxathiazocine-8-carboxamide 5,5-dioxide], which EC50 [2] is on record?
The EC50 was under 1000 nM.

For `Cn1cc2c(c1C(=O)Nc1cc(F)c(F)c(F)c1)OCC1CCCC1NS2(=O)=O` (racemic) [Example E28, cis (5aR,8aS and 5aS,8aR)-2-methyl-N-(3,4,5-trifluorophenyl)-5a,6,7,8,8a,9-hexahydro-2H,5H-cyclopenta[f]pyrrolo[3,4-b][1,4,5]oxathiazocine-1-carboxamide 4,4-dioxide], which inhibition at 0.1 µM [1] is on record?
Its inhibition at 0.1 µM is over 50%.

What about the EC50 [2] of the same compound?
Its EC50 is under 1000 nM.

Which inhibition at 0.1 µM [1] does the source give for `Cn1cc2c(c1C(=O)Nc1ccc(F)c(F)c1)OCC1(C)CCCC1NS2(=O)=O` (stereo not shown) [Example E29, N-(3,4-difluorophenyl)-2,8a-dimethyl-5a,6,7,8,8a,9-hexahydro-2H,5H-cyclopenta[f]pyrrolo[3,4-b][1,4,5]oxathiazocine-1-carboxamide 4,4-dioxide] here?
Its inhibition at 0.1 µM is under 50%.

Which EC50 (read-out: HBV inh EC50, 96 hours, 8-point dose-response curve) does the source give for `Cc1cc(NC(=O)c2c3c(cn2C)S(=O)(=O)NC2CCN(C(=O)c4ncoc4C)CC2CO3)ccc1F` (racemic) [Example E129, Cis-N-(4-fluoro-3-methylphenyl)-2-methyl-8-(5-methyloxazole-4-carbonyl)-5,5a,6,7,8,9,9a,10-octahydro-2H-pyrido[4,3-f]pyrrolo[3,4-b][1,4,5]oxathiazocine-1-carboxamide 4,4-dioxide] here?
The EC50 was under 1000 nM.

Which “Anti HBV Activity (conc μM)” value [3] does the source give for “tert-butyl 7-methyl-8-((3,4,5-trifluorophenyl)carbamoyl)-3a,4,10,10a-tetrahydro-1H,7H-dipyrrolo[3,4-b:3′,4′-f][1,4,5]oxathiazocine-2(3H)-carboxylate 5,5-dioxide (3aR,10aR) [Example E33]” here?
The value was “B (0.1) (HBV inhibition less than 50% at the concentration indicated in the table)”.

`Cc1cc(NC(=O)c2c3c(cn2C)S(=O)(=O)NC2CN(CC(F)(F)F)CC2CO3)ccc1F` (stereo not drawn) [Example E80, cis-N-(4-fluoro-3-methylphenyl)-7-methyl-2-(2,2,2-trifluoroethyl)-2,3,3a,4,10,10a-hexahydro-1H,7H-dipyrrolo[3,4-b:3′,4′-f][1,4,5]oxathiazocine-8-carboxamide 5,5-dioxide] was tested. Which inhibition at 0.1 µM [1] did it give?
The inhibition at 0.1 µM was over 50%.

`Cc1cc(NC(=O)c2c3c(cn2C)S(=O)(=O)N[C@@H]2CN(C(=O)OC(C)(C)C)C[C@H]2CO3)ccc1F` (single isomer, unassigned) [Example E151] was tested. Which EC50 [2] did it give?
The EC50 was under 1000 nM.

How did the inhibition at 0.1 µM [1] turn out when `Cc1noc(N2CC3COc4c(cn(C)c4C(=O)Nc4cc(F)c(F)c(F)c4)S(=O)(=O)NC3C2)n1` (stereo not drawn) [Example E83, cis-7-methyl-2-(3-methyl-1,2,4-oxadiazol-5-yl)-N-(3,4,5-trifluorophenyl)-2,3,3a,4,10,10a-hexahydro-1H,7H-dipyrrolo[3,4-b:3′,4′-f][1,4,5]oxathiazocine-8-carboxamide 5,5-dioxide] was run?
Its inhibition at 0.1 µM is over 50%.

What about the EC50 [2] of the same compound?
The EC50 was under 1000 nM.

With `Cn1cc2c(c1C(=O)Nc1cc(F)c(F)c(F)c1)OCC1CN(C(=O)OC3CO[C@H]4OCC[C@@H]34)CC1NS2(=O)=O` (mixture of isomers) [Example E22, cis-(3R,3aS,6aR)-hexahydrofuro[2,3-b]furan-3-yl 7-methyl-8-((3,4,5-trifluorophenyl)carbamoyl)-3a,4,10,10a-tetrahydro-1H,7H-dipyrrolo[3,4-b:3′,4′-f][1,4,5]oxathiazocine-2(3H)-carboxylate 5,5-dioxide] as the compound, how does the inhibition at 0.1 µM [1] read?
The inhibition at 0.1 µM was over 50%.

What about the EC50 [2] of the same compound?
Its EC50 is under 1000 nM.

Which “Anti HBV Activity (conc μM)” value [3] does the source give for “ethyl 7-methyl-8-((3,4,5-trifluorophenyl)carbamoyl)-3a,4,10,10a-tetrahydro-1H,7H-dipyrrolo[3,4-b:3′,4′-f][1,4,5]oxathiazocine-2(3H)-carboxylate 5,5-dioxide (3aR,10aR) [Example E31]” here?
The value was “B (0.1) (HBV inhibition less than 50% at the concentration indicated in the table)”.

With `Cn1cc2c(c1C(=O)Nc1cc(F)c(F)c(F)c1)OC[C@H]1CN(C(=O)[C@@H](N)CO)C[C@H]1NS2(=O)=O` (mixture of isomers) [Example E68, cis-2-(L-seryl)-7-methyl-N-(3,4,5-trifluorophenyl)-2,3,3a,4,10,10a-hexahydro-1H,7H-dipyrrolo[3,4-b:3′,4′-f][1,4,5]oxathiazocine-8-carboxamide 5,5-dioxide] as the compound, how does the inhibition at 0.1 µM [1] read?
Its inhibition at 0.1 µM is under 50%.

Which inhibition at 0.1 µM [1] does the source give for `CN1CC2COc3c(cn(C)c3C(=O)Nc3cc(F)c(F)c(F)c3)S(=O)(=O)NC2C1` (racemic) [Example E12, cis-2,7-dimethyl-N-(3,4,5-trifluorophenyl)-2,3,3a,4,10,10a-hexahydro-1H,7H-dipyrrolo[3,4-b:3′,4′-f][1,4,5]oxathiazocine-8-carboxamide 5,5-dioxide] here?
Its inhibition at 0.1 µM is over 50%.

And the EC50 [2]?
Its EC50 is under 1000 nM.

Which results are given for `Cn1cc2c(c1C(=O)Nc1ccc(F)c(F)c1)OCC1CCCC1NS2(=O)=O` (racemic) [Example E6, cis-N-(3,4-difluorophenyl)-2-methyl-5a,6,7,8,8a,9-hexahydro-2H,5H-cyclopenta[f]pyrrolo[3,4-b][1,4,5]oxathiazocine-1-carboxamide 4,4-dioxide]?
inhibition at 0.5 µM (Hepatitis B virus, 0.5 μM, 96 hours, relative to non-treated reference, read-out: Anti HBV Activity (conc μM)): > 50%; EC50 [2]: < 1000 nM
